Values quoted from earlier work as cited in patent publication US20240316039A1, “METHOD OF REDUCING ELEVATED INTRAOCULAR PRESSURE” (SUN PHARMA ADVANCED RESEARCH COMPANY LIMITED, priority 2021, published 2024).
Read-outs that look alike come from different tables or passages of the source.

System: ocular hypertensive eyes and normotensive eyes

Brc1c(NC2=NCCN2)ccc2nccnc12 [Brimonidine]
duration of effect (in vivo): less than 12 hours
time of peak effect after instillation (in vivo): ≤ 2 h
peak IOP reduction (normotensive eyes (less than 21 mm Hg)): 6-18%
peak IOP reduction (ocular hypertensive eyes): 20-25%
